{"source": "ChEMBL document CHEMBL3758152", "about": "“11-Hydroxylation of Protoberberine by the Novel Berberine-Utilizing Aerobic Bacterium Sphingobium sp. Strain BD3100” (2015)", "key": {"Staphylococcus aureus [1]": {"system": "Staphylococcus aureus", "test": "Antibacterial activity against Staphylococcus aureus H209P at 125 nmol/disk after 12 hrs by paper disk method", "format": "functional"}, "Staphylococcus aureus [2]": {"system": "Staphylococcus aureus", "test": "Antibacterial activity against Staphylococcus aureus H209P at 250 nmol/disk after 12 hrs by paper disk method", "format": "functional, organism-based"}}, "note": "The source made the active and inactive calls. The calls are words filed in the database; no cut-off is given here."}
{"smiles": "COc1ccc2cc3[n+](cc2c1OC)CCc1cc2c(cc1-3)OCO2", "note": "[BERBERINE]", "values": [{"measurement": "diameter of the inhibition zone (DIZ)", "setting": "Staphylococcus aureus [1]", "value": 12, "unit": "mm"}]}
{"smiles": "COc1c(O)cc2cc3[n+](cc2c1OC)CCc1cc(O)c(O)cc1-3", "values": [{"measurement": "Activity", "setting": "Staphylococcus aureus [2]", "value": "inactive"}]}
{"smiles": "COc1c(O)cc2cc3[n+](cc2c1OC)CCc1cc2c(cc1-3)OCO2", "values": [{"measurement": "Activity", "setting": "Staphylococcus aureus [2]", "value": "inactive"}]}
{"smiles": "COc1cc2c(cc1OC)-c1cc3cc(O)c(OC)c(OC)c3c[n+]1CC2", "values": [{"measurement": "Activity", "setting": "Staphylococcus aureus [2]", "value": "inactive"}]}
